Converted amounts (≈) assume the structure as drawn.
How the values were obtained:
MRSA biofilm (CBD-635) = test: In vitro MRSA biofilm assay; assay type: cell-based, Staphylococcus aureus
Text: (§1) Spongian diterpenes are well known as bioactive natural products. Darwinolide was screened for activity against a clinical strain of a highly resistant Staphylococcus aureus (MRSA). […] The remaining colony was subjected to a cell recovery experiment overnight after washout of darwinolide. […] Based on the 4-fold selectivity of darwinolide for MRSA biofilms over planktonic cells, and its low mammalian cytotoxicity, darwinolide presents a highly suitable scaffold for the development of urgently needed, novel anti-biofilm-specific antibiotics.
(§2) A clinical, multi-drug resistant strain of MRSA (CBD-635) was used in these studies for minimum inhibitory concentration (MIC) determination and assessment of anti-biofilm properties, all as described previously (Fleeman et al., J. Med. Chem. 2015, 58, 3340-3355).

[1] = tested on: methicillin-resistant Staphylococcus aureus (MRSA) CBD-635; test: Broth dilution MIC assay against clinical MRSA strain; assay type: cell-based
Text: as §1, §2

[2] = tested on: methicillin-resistant Staphylococcus aureus (MRSA) CBD-635; assay type: cell-based
Text: as §1, §2

[3] = Cytotoxicity assay (MTS, 72 h) in J774 macrophage cell line; assay type: cell-based; conditions: mouse, J774.A-1 macrophage cell line
Text: as §1
The J774.A-1 cell line was used for cytotoxicity screening via a colorometric method employing a tetrazolium derivative [3-(4,5-dimethylthiazol-2-yl)-5-(3-carboxymethoxyphenyl)-2-(4-sulfophenyl)-2H-tetrazolium] (MTS) 72 h assay using 50000 […] per well, and an electron-coupling reagent, and penazine methosulphate (PMS) were used in the assay. IC50 values were calculated from sigmoidal inhibition curves using SigmaPlot 11.0 software (von Salm et al., J. Org. Lett. 2014, 16, 2630-2633).

CC(=O)O[C@@H]1O[C@H]2OC(=O)C3=C(C)[C@@H]([C@@]4(C)CCCC(C)(C)C4)CC[C@@H]1[C@H]32 [darwinolide]
IC50 (MRSA biofilm (CBD-635); Staphylococcus aureus, biofilm established in vitro with same MRSA strain, read-out: IC50 against the biofilm): 33.2 µM | selectivity for MRSA biofilms over planktonic cells (MRSA biofilm (CBD-635); biofilm IC50 vs planktonic MIC): 4 fold | MIC [1]: 133 µM (≈ 50 µg/mL) | cytotoxic or cytostatic toward S. aureus ([2]; conclusion from cell recovery experiment): cytotoxic, rather than cytostatic | treated bacterium able to recover and grow ([2]; overnight recovery after washout of darwinolide, colony remaining from MIC assay): 1.6% | IC50 at 72 h [3]: 73.4 µM

Reference: US11213507B2, “MRSA biofilm inhibition” (University of South Florida, priority 2016, dated 2022)
